In ChEMBL document CHEMBL3244200, “8-Carboxy-6-sulfamyldibenz[b,f][1,4]oxazepines and -thiazepines as potential high-ceiling diuretics” (1978):
Activity calls are given as the source filed them. The rule behind the calls is not given here.

What was measured:
[1] = test system: Rattus norvegicus; test: High-ceiling diuretic activity in Wistar rat assessed as drug to urea ratio to cause diuresis at 50 mg/kg, po measured for 5 hrs (reference value: 0.44 +/- 0.05 no unit); assay type: functional, Urine
[2] = test system: Rattus norvegicus; test: High-ceiling diuretic activity in Wistar rat assessed as drug to urea ratio to increase Na+ level in urine at 50 mg/kg, po measured for 5 hrs by flame photometric analysis (reference value: 0.47 +/- 0.07 no unit); assay type: functional
[3] = test system: Rattus norvegicus; test: High-ceiling diuretic activity in Wistar rat assessed as drug to urea ratio to increase K+ level in urine at 50 mg/kg, po measured for 5 hrs by flame photometric analysis (reference value: 0.57 +/- 0.08 no unit); assay type: functional
[4] = test system: Canis familiaris; test: High-ceiling diuretic activity in Beagle dog at 20 mg/kg, po; assay type: functional, organism-based; set-up: dose 20 mg/kg; details: Canis lupus familiaris, Urine

Row | SMILES | Ratio [1] | Ratio [2] | Ratio [3] | Activity [4]
1 | COC(=O)c1cc2c(c(S(N)(=O)=O)c1)Sc1ccccc1C(=O)N2 | 0.25 | 0.42 | 0.41 | 
2 | NS(=O)(=O)c1cc(C(=O)O)cc2c1Sc1ccccc1CN2 | 0.07 | 0.13 | 0.05 | inactive
3 | NS(=O)(=O)c1cc(C(=O)O)cc2c1Sc1ccccc1C(=O)N2 | 0.56 | 0.71 | 0.62 | inactive
4 | NS(=O)(=O)c1cc(C(=O)O)cc2c1Oc1ccccc1CN2 | 0.47 | 1 | 0.9 | 
5 | CCCCNc1cc(C(=O)O)cc(S(N)(=O)=O)c1Oc1ccccc1 [BUMETANIDE] | 2.6 | 4.66 | 0.97 | 
6 | COC(=O)c1cc2c(c(S(N)(=O)=O)c1)Oc1ccccc1C(=O)N2 | 0.79 | 1.24 | 0.63 | 
